SMILES strings stand for the structures.

The text below walks through data of ChEMBL document CHEMBL1130469, “Prolyl endopeptidase inhibitors1: N-acyl derivatives of L-thioproline-pyrrolidine” (Bioorg Med Chem Lett, 1997).

In the assay the target is T1, Prolyl endopeptidase (Rattus norvegicus, UniProt O70196).
T1 sequence (O70196 whole entry): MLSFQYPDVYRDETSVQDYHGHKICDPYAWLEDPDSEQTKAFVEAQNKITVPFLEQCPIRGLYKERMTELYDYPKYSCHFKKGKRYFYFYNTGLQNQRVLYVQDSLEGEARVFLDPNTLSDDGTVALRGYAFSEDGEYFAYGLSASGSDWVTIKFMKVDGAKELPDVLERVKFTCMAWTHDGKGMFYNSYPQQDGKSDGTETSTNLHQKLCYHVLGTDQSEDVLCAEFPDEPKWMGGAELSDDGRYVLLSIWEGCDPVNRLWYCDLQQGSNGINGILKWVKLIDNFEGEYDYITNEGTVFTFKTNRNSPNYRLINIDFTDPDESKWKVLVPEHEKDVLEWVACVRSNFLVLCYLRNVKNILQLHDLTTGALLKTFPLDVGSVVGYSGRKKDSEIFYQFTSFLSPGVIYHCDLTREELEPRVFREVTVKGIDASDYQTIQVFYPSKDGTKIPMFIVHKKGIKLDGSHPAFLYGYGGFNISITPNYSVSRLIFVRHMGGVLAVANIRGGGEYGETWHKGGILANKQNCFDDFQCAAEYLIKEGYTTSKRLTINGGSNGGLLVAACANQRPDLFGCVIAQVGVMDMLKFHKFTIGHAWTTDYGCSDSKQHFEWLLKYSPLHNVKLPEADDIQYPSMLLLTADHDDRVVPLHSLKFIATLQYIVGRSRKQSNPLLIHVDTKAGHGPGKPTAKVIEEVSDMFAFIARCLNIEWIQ
Put plainly: Inhibitory activity against rat brain Prolyl endopeptidase (PEP).

What is called IC50 is the concentration needed to halve the response being measured. A lower IC50 goes with higher potency. `CCCCCCCCC(=O)N1CSC[C@H]1C(=O)N1CCCC1`: the 50% inhibitory concentration (IC50) came out at 0.038 µM.
Consider `CCCCC/C=C(\C)C(=O)N1CCC[C@H]1C(=O)N1CCCC1`, for which the IC50 amounted to 0.073 µM.
The result for `CCCCC/C=C/C(=O)N1CCC[C@H]1C(=O)N1CCCC1` reads 0.034 µM.
Regarding `CCCCCCC(=O)N1CSC[C@H]1C(=O)N1CCCC1`, the IC50 was 0.017 µM.
The result for `CCCCC(=O)N1CSC[C@H]1C(=O)N1CCCC1` reads 0.037 µM.
`CCCCCCCC(=O)N1CSC[C@H]1C(=O)N1CCCC1` returned an IC50 of 0.011 µM.
To `CCC/C=C/C=C(\C)C(=O)N1CCC[C@H]1C(=O)N1CCCC1` belongs 0.207 µM.
`CCCCCCCCC=CCCCCCCCC(=O)N1CSC[C@H]1C(=O)N1CCCC1` showed an IC50 of 0.104 µM.
To `CCCCCCCCCC(=O)N1CSC[C@H]1C(=O)N1CCCC1` belongs 0.038 µM.
Take `CCCCCCCCCCCCCC(=O)N1CSC[C@H]1C(=O)N1CCCC1`: the IC50 stood at 0.08 µM.
The compound `CCCCCCCCCCCC(=O)N1CSC[C@H]1C(=O)N1CCCC1` had an IC50 of 0.046 µM.
The result for `CCCC(=O)N1CSC[C@H]1C(=O)N1CCCC1` reads 0.167 µM; that for `CCCCCCCCCCCCCCCCCCCC(=O)N1CSC[C@H]1C(=O)N1CCCC1`, 1.16 µM; that for `CCCCCC(=O)N1CSC[C@H]1C(=O)N1CCCC1`, 0.037 µM.
`CCCCCCCCCCC(=O)N1CSC[C@H]1C(=O)N1CCCC1` yielded an IC50 of 0.042 µM.
For the compound `CCCCCCCCCCCCCCCCCC(=O)N1CSC[C@H]1C(=O)N1CCCC1`, the IC50 turned out to be 0.904 µM.
As to `CCCCCCCCCCCCCCCC(=O)N1CSC[C@H]1C(=O)N1CCCC1`, the IC50 was found to be 0.216 µM.
